From EPA's CvTdb concentration-time database

Columns and labels:
[1] = system: Rat; assay: concentration in plasma after dosing; conditions: dosed: 2-Hydroxy-4-methoxybenzophenone, 250 mg/kg, oral, Male, F344
[2] = system: Mouse; assay: concentration in plasma after dosing; conditions: 10 min; dosed: 2-Hydroxy-4-methoxybenzophenone; 50 mg/kg; iv; Male; B6C3F1
[3] = system: Mouse; assay: concentration in plasma after dosing; conditions: 10 min; dosed: 2-Hydroxy-4-methoxybenzophenone; 50 mg/kg; iv; Male; B6C3F1; remark: listed apart in the source
[4] = system: Mouse; assay: concentration in plasma after dosing; conditions: 0.25 h; dosed: 2-Hydroxy-4-methoxybenzophenone; 500 mg/kg; oral; Male; B6C3F1
[5] = system: Mouse; assay: concentration in plasma after dosing; conditions: dosed: 2-Hydroxy-4-methoxybenzophenone, 100 mg/kg, oral, Male, B6C3F1
[6] = system: Rat; assay: concentration in plasma after dosing; conditions: dosed: 2-Hydroxy-4-methoxybenzophenone, 250 mg/kg, oral, Male, F344; remark: listed apart in the source
[7] = system: Rat; assay: concentration in plasma after dosing; conditions: dosed: 2-Hydroxy-4-methoxybenzophenone, 100 mg/kg, oral, Male, F344
[8] = system: Rat; assay: concentration in plasma after dosing; conditions: 10 min; dosed: Nitrite; 40 mg/kg; oral; Male; F344
[9] = system: Rat; assay: concentration in plasma after dosing; conditions: dosed: Nitrite, 80 mg/kg, oral, Female, F344
[10] = system: Rat; assay: concentration in plasma after dosing; conditions: dosed: Nitrite, 80 mg/kg, oral, Female, F344; remark: listed apart in the source
[11] = system: Rat; assay: concentration in liver after dosing; conditions: 12 h; dosed: Perfluorooctanoic acid; 12 mg/kg; oral; Male; Harlan Sprague Dawley
[12] = system: Rat; assay: concentration in brain after dosing; conditions: 12 h; dosed: Perfluorooctanoic acid; 80 mg/kg; oral; Female; Harlan Sprague Dawley
[13] = system: Rat; assay: concentration in liver after dosing; conditions: 3 h; dosed: Perfluorooctanoic acid; 12 mg/kg; oral; Male; Harlan Sprague Dawley
[14] = system: Rat; assay: concentration in plasma after dosing; conditions: dosed: Fluorotelomer alcohol 8+2, 12 mg/kg, oral, Male, Harlan Sprague Dawley
[15] = system: Rat; assay: concentration in liver after dosing; conditions: 3 h; dosed: Fluorotelomer alcohol 8+2; 24 mg/kg; oral; Male; Harlan Sprague Dawley
[16] = system: Rat; assay: concentration in kidney after dosing; conditions: 24 h; dosed: Perfluorooctanoic acid; 12 mg/kg; oral; Male; Harlan Sprague Dawley
[17] = system: Rat; assay: concentration in plasma after dosing; conditions: dosed: 678-39-7, 40 mg/kg, iv, Male, F344
[18] = system: Rat; assay: concentration in liver after dosing; conditions: 12 h; dosed: Fluorotelomer alcohol 8+2; 24 mg/kg; oral; Male; Harlan Sprague Dawley
[19] = system: Rat; assay: concentration in liver after dosing; conditions: 3 h; dosed: Perfluorooctanoic acid; 12 mg/kg; oral; Male; Harlan Sprague Dawley; remark: listed apart in the source
[20] = system: Rat; assay: concentration in liver after dosing; conditions: 6 h; dosed: Potassium Perfluorobutane Sulfonate; 20 mg/kg; oral; Female; Harlan Sprague Dawley
[21] = system: Rat; assay: concentration in brain after dosing; conditions: 1 h; dosed: Potassium Perfluorobutane Sulfonate; 20 mg/kg; oral; Male; Harlan Sprague Dawley
[22] = system: Rat; assay: concentration in brain after dosing; conditions: 3 h; dosed: Potassium Perfluorobutane Sulfonate; 20 mg/kg; oral; Male; Harlan Sprague Dawley
[23] = system: Rat; assay: concentration in brain after dosing; conditions: 3 h; dosed: Potassium Perfluorobutane Sulfonate; 20 mg/kg; oral; Male; Harlan Sprague Dawley; remark: listed apart in the source
[24] = system: Rat; assay: concentration in liver after dosing; conditions: 0.5 h; dosed: Potassium Perfluorobutane Sulfonate; 20 mg/kg; oral; Female; Harlan Sprague Dawley
[25] = system: Rat; assay: concentration in plasma after dosing; conditions: dosed: Potassium Perfluorobutane Sulfonate, 4 mg/kg, iv, Male, F344
[26] = system: Rat; assay: concentration in liver after dosing; conditions: 3 h; dosed: Potassium Perfluorobutane Sulfonate; 20 mg/kg; oral; Male; Harlan Sprague Dawley
[27] = system: Rat; assay: concentration in kidney after dosing; conditions: 6 h; dosed: Potassium Perfluorobutane Sulfonate; 20 mg/kg; oral; Female; Harlan Sprague Dawley
[28] = system: rat; conditions: dosed: benzo[a]pyrene, 1 mg/kg, iv, male, Sprague Dawley

COc1ccc(C(=O)c2ccccc2)c(O)c1 [2-Hydroxy-4-methoxybenzophenone]
Conditions	concentration in plasma [ng/mL]
[1], 0.25 h	318
[1], 4 h	48.1
[5], 0.25 h	64.6
[5], 2 h	21.1
[5], 2.5 min	26.8
[5], 3 h	20
[5], 10 min	39.6
[6], 0.25 h	55.5
[6], 4 h	84
[7], 3 h	21.2
[7], 10 min	17.3

Conditions	concentration in plasma [ng/mL]
[2]	14000
[3]	11900
[4]	395

O=N[O-] [Nitrite]
Conditions	concentration in plasma [ng/mL]
[8]	2600

concentration in plasma [ng/mL]
Conditions	1 h	2 h	6 h	10 min
[9]	–	–	1800	24800
[10]	19000	8500	–	–

O=C(O)C(F)(F)C(F)(F)C(F)(F)C(F)(F)C(F)(F)C(F)(F)C(F)(F)F [Perfluorooctanoic acid]
Conditions	concentration in brain [ng/g]	concentration in kidney [ng/g]	concentration in liver [ng/g]
[11]	–	–	63300
[12]	1000	–	–
[13]	–	–	50700
[15]	–	–	1430
[16]	–	28700	–
[18]	–	–	1350
[19]	–	–	41100

concentration in plasma [ng/mL]
Conditions	0.25 h	0.5 h	6 h	9 h
[14]	–	108	–	851
[17]	970	–	1760	–

O=S(=O)([O-])C(F)(F)C(F)(F)C(F)(F)C(F)(F)F.[K+] [Potassium Perfluorobutane Sulfonate]
Conditions	concentration in brain [ng/g]	concentration in kidney [ng/g]	concentration in liver [ng/g]
[20]	–	–	2620
[21]	1030	–	–
[22]	552	–	–
[23]	754	–	–
[24]	–	–	48000
[26]	–	–	80000
[27]	–	3360	–

[25]
Conditions	concentration in plasma [ng/mL]
0.5 h	22200
12 h	938

c1ccc2c(c1)cc1ccc3cccc4ccc2c1c34 [benzo[a]pyrene]
[28]
Conditions	amount in urine after dosing [ng]
2.991 h	1.11
6.006 h	1.15
24 h	1.15
